From ChEMBL document CHEMBL1126200, “Design and synthesis of novel FKBP inhibitors” (J Med Chem, 1992)
Non-standard residues stand in square brackets, D forms with d. Residues, ends and D or L forms follow the SMILES beside them. *: point of attachment. Pip = O=C(O)[C@@H]1CCCCN1; Cbz = O=C(OCc1ccccc1)*

Experiment: The compound was tested for the inhibitory activity of FK506 binding protein
Design: species or system Homo sapiens

Structure (SMILES) | IC50
COc1cccc(C(=O)CN2CCCC[C@H]2C(=O)N[C@@H](CCc2ccccc2)C(=O)OC(C)C)c1 | > 100 µM
CC(C)[C@H](NC(=O)[C@H](Cc1ccccc1)NC(=O)[C@@H]1CCCCN1CC(=O)c1ccc2ccccc2c1)C(=O)N[C@@H](Cc1ccccc1)C(=O)N[C@H](C)c1ccccc1 | 65 µM
COc1cccc(C(=O)CN2CCCC[C@H]2C(=O)N[C@H](C(=O)OC(C)(C)C)C(C)C)c1 | 83 µM
C[C@@H](/C=C/c1ccc(C(=O)C(=O)N2CCCC2C(=O)NC(Cc2ccccc2)C(=O)OC(C)(C)C)s1)CO (stereo not given in full) | 120 µM
CC(C)(C)OC(=O)N[C@@H](CC1CCCCC1)C(=O)CN1CCCC1C(=O)NC(Cc1ccccc1)C(=O)OC(C)(C)C (stereo not given in full) | > 100 µM
COc1cccc(C(=O)CN2CCCC[C@H]2C(=O)N[C@@H](Cc2ccccc2)C(=O)N[C@H](C(=O)N[C@@H](Cc2ccccc2)C(=O)N[C@@H](C)c2ccccc2)C(C)C)c1 | 59 µM
COc1cccc(C(=O)CN2CCCC[C@H]2C(=O)N[C@H](Cc2ccccc2)C(=O)OC(C)(C)C)c1 | 81 µM
COc1cccc(C(=O)CN2CCCC[C@H]2C(=O)N[C@@H](Cc2ccccc2)C(=O)NC(CC2CCCCC2)C(=O)OC(C)(C)C)c1 (stereo not given in full) | 70 µM
COc1cccc(C(=O)CN2CCCC[C@H]2C(=O)N[C@@H](Cc2ccccc2)C(=O)N[C@H](/C=C/COC(=O)c2ccccc2)C(C)C)c1 | 62 µM
C[C@@H](/C=C/c1ccc(C(=O)C(=O)N2CCCC2C(=O)OC(C)(C)C)s1)CO[Si](C)(C)C(C)(C)C (stereo not given in full) | > 100 µM
COC(=O)[C@H](Cc1ccccc1)NC(=O)[C@@H](NC(=O)[C@H](Cc1ccccc1)NC(=O)[C@@H]1CCCCN1)C(C)C (H-[Pip]FVF-OMe) | > 100 µM
C[C@@H](/C=C/c1ccc(C(=O)C(=O)N2CCCC2C(=O)NC(Cc2ccccc2)C(=O)OC(C)(C)C)s1)CO[Si](C)(C)C(C)(C)C (stereo not given in full) | > 100 µM
COc1cccc(C(=O)CN2CCCC[C@H]2C(=O)N[C@@H](CC2CCCCC2)C(=O)OC(C)(C)C)c1 | 91 µM
COc1cccc(C(=O)CN2CCCC[C@H]2C(=O)N[C@@H](Cc2ccccc2)C(=O)N[C@H](/C=C/C2CCCC(=O)O2)C(C)C)c1 (stereo not given in full) | 42 µM
C[C@@H](/C=C/c1ccc(C(=O)C(=O)N2CCCC2C(=O)OC(C)(C)C)s1)CO (stereo not given in full) | > 100 µM
COc1cccc(C(=O)CN2CCCC[C@H]2C(=O)N[C@@H](Cc2ccccc2)C(=O)NC(CCCCNC(=O)OCc2ccccc2)C(=O)OCc2ccccc2)c1 (stereo not given in full) | > 100 µM
COc1cccc(C(=O)CN2CCCC[C@H]2C(=O)N[C@@H](Cc2ccccc2)C(=O)N[C@H](C(=O)N[C@@H](Cc2ccccc2)C(=O)N[C@H](C)c2ccccc2)C(C)C)c1 | 85 µM
CC(C)[C@H](NC(=O)[C@H](Cc1ccccc1)NC(=O)[C@@H]1CCCCN1CC(=O)c1ccc2ccccc2c1)C(=O)N[C@@H](Cc1ccccc1)C(=O)N[C@H](C)c1cccc2ccccc12 | 75 µM
C[C@@H](/C=C/c1ccc(C(=O)CN2CCCC2C(=O)NC(Cc2ccccc2)C(=O)OC(C)(C)C)s1)CO[Si](C)(C)C(C)(C)C (stereo not given in full) | 60 µM
COc1cccc(C(=O)CN2CCCC[C@H]2C(=O)N[C@@H](Cc2ccccc2)C(=O)N[C@H](C(=O)N[C@@H](Cc2ccccc2)C(=O)O[C@@H](C)c2ccccc2)C(C)C)c1 | 56 µM
COC1CCCC(C(=O)CN2CCCC2C(=O)NC(Cc2ccccc2)C(=O)OC(C)(C)C)C1 (stereo not given) | > 100 µM
COc1cccc(C(=O)CN2CCCC[C@H]2C(=O)N[C@@H](CCC2CCCCC2)C(=O)OC(C)C)c1 | > 100 µM
COC(=O)[C@H](Cc1ccccc1)NC(=O)[C@@H](NC(=O)[C@H](Cc1ccccc1)NC(=O)[C@@H]1CCCCN1C(=O)OCc1ccccc1)C(C)C (Cbz-[Pip]FVF-OMe) | > 100 µM

The next compounds have a lower IC50 than those just listed; values first:

IC50 | Structure (SMILES)
40 µM | COc1cccc(C(=O)CN2CCCC[C@H]2C(=O)N[C@@H](Cc2ccccc2)C(=O)N[C@H](/C=C/C(=O)N[C@@H](C)c2ccccc2)C(C)C)c1
40 µM | COc1cccc(C(=O)CN2CCCC[C@H]2C(=O)N[C@@H](Cc2ccccc2)C(=O)NC(Cc2ccccc2)C(=O)OC(C)(C)C)c1 (stereo not given in full)
35 µM | CC(C)[C@@H](/C=C/C(=O)N[C@@H](C)c1ccccc1)NC(=O)[C@H](Cc1ccccc1)NC(=O)[C@@H]1CCCCN1CC(=O)c1ccc2ccccc2c1
35 µM | CC(C)(C)OC(=O)C(CC1CCCCC1)NC(=O)[C@H](Cc1ccccc1)NC(=O)[C@@H]1CCCCN1CC(=O)c1ccc2ccccc2c1 (stereo not given in full)
30 µM | COc1cccc(C(=O)CN2CCCC[C@H]2C(=O)N[C@@H](Cc2ccccc2)C(=O)N[C@H](C(=O)N[C@@H](Cc2ccccc2)C(=O)N[C@H](C)c2cccc3ccccc23)C(C)C)c1
27 µM | COc1cccc(C(=O)CN2CCCC[C@H]2C(=O)N[C@@H](Cc2ccc([N+](=O)[O-])cc2)C(=O)OC(C)(C)C)c1
26 µM | COC(=O)[C@H](Cc1ccccc1)NC(=O)[C@@H](NC(=O)[C@H](Cc1ccccc1)NC(=O)[C@@H]1CCCCN1CC(=O)c1ccc(-c2ccccc2)cc1)C(C)C
23 µM | COc1cccc(C(=O)CN2CCCC[C@H]2C(=O)N[C@@H](Cc2ccccc2)C(=O)N[C@H](C(=O)N[C@@H](Cc2ccccc2)C(=O)O[C@H](C)c2ccccc2)C(C)C)c1
23 µM | COc1cccc(C(=O)CN2CCCC[C@H]2C(=O)N[C@H](C(=O)OC(C)(C)C)c2cccs2)c1
22 µM | COc1cccc(C(=O)CN2CCCC[C@H]2C(=O)N[C@H](C(=O)OC(C)(C)C)c2ccsc2)c1
20 µM | COc1cccc(C(=O)CN2CCCC[C@H]2C(=O)N[C@@H](Cc2ccccc2)C(=O)N[C@H](C(=O)N[C@@H](Cc2ccccc2)C(=O)OC(C)(C)C)C(C)C)c1
18 µM | CC(=O)OC/C=C/[C@@H](NC(=O)[C@H](Cc1ccccc1)NC(=O)[C@@H]1CCCCN1CC(=O)c1ccc2ccccc2c1)C(C)C
15 µM | CCOC(=O)/C=C/[C@@H](NC(=O)[C@H](Cc1ccccc1)NC(=O)[C@@H]1CCCCN1CC(=O)c1cccc(OC)c1)C(C)C
14 µM | COc1cccc(C(=O)CN2CCCC[C@H]2C(=O)N[C@@H](Cc2ccccc2)C(=O)N[C@H](C(=O)Cc2ccccc2)C(C)C)c1
13 µM | CC(C)[C@H](NC(=O)[C@H](Cc1ccccc1)NC(=O)[C@@H]1CCCCN1CC(=O)c1ccc2ccccc2c1)C(=O)N[C@@H](Cc1ccccc1)C(=O)OC(C)(C)C
12 µM | COc1cccc(C(=O)CN2CCCC2C(=O)NC(Cc2ccccc2)C(=O)OC(C)(C)C)c1 (stereo not given)

IC50 | Structure (SMILES)
12 µM | C=CCCC(NC(=O)[C@H](Cc1ccccc1)NC(=O)[C@@H]1CCCCN1CC(=O)c1cccc(OC)c1)C(=O)OC(C)(C)C (stereo not given in full)
11 µM | COc1cccc(C(=O)CN2CCCC[C@H]2C(=O)N[C@@H](Cc2ccccc2)C(=O)N[C@H](/C=C/C2CCC(=O)C2)C(C)C)c1 (stereo not given in full)
10 µM | COc1cccc(C(=O)CN2CCCC[C@H]2C(=O)N[C@@H](Cc2ccccc2)C(=O)N[C@H](/C=C/[C@@H](C)CC(C)=O)C(C)C)c1
9 µM | C[C@@H](/C=C/c1ccc(C(=O)C(=O)N2CCCC[C@H]2C(=O)NC(Cc2ccccc2)C(=O)OC(C)(C)C)s1)CO (stereo not given in full)
8 µM | CCC(C)[C@H](NC(=O)[C@@H]1CCCCN1CC(=O)c1cccc(OC)c1)C(=O)OC(C)(C)C (stereo not given in full)
6 µM | CCC(C)C(NC(=O)[C@H](Cc1ccccc1)NC(=O)[C@@H]1CCCCN1CC(=O)c1cccc(OC)c1)C(=O)OC(C)(C)C (stereo not given in full)
3 µM | COc1cccc(C(=O)CN2CCCC[C@H]2C(=O)N[C@@H](Cc2ccccc2)C(=O)NC(CC(C)C)C(=O)OC(C)(C)C)c1 (stereo not given in full)
3 µM | C=CCOC/C=C/[C@@H](NC(=O)[C@H](Cc1ccccc1)NC(=O)[C@@H]1CCCCN1CC(=O)c1cccc(OC)c1)C(C)C
3 µM | COc1cccc(C(=O)CN2CCCC[C@H]2C(=O)N[C@@H](Cc2ccccc2)C(=O)NC(C(=O)OC(C)(C)C)C(C)C)c1 (stereo not given in full)
3 µM | COc1cccc(C(=O)CN2CCCC[C@H]2C(=O)N[C@@H](Cc2ccccc2)C(=O)OC(C)(C)C)c1
2 µM | COc1cccc(C(=O)CN2CCCC[C@H]2C(=O)N[C@@H](Cc2ccccc2)C(=O)N[C@H](/C=C/I)C(C)C)c1
2 µM | COc1cccc(C(=O)CN2CCCC[C@H]2C(=O)N[C@@H](Cc2ccccc2)C(=O)N[C@H](/C=C/COC(C)=O)C(C)C)c1
1 µM | CC(C)C(NC(=O)[C@H](Cc1ccccc1)NC(=O)[C@@H]1CCCCN1CC(=O)c1ccc2ccccc2c1)C(=O)OC(C)(C)C (stereo not given in full)
1 µM | COC(=O)[C@H](Cc1ccccc1)NC(=O)[C@@H](NC(=O)[C@H](Cc1ccccc1)NC(=O)[C@@H]1CCCCN1CC(=O)c1cccc(OC)c1)C(C)C
1 µM | COc1cccc(C(=O)CN2CCCC[C@H]2C(=O)N[C@@H](Cc2ccccc2)C(=O)N[C@H](/C=C/COC(=O)C(F)(F)F)C(C)C)c1
0.3 µM | COC(=O)[C@H](Cc1ccccc1)NC(=O)[C@@H](NC(=O)[C@H](Cc1ccccc1)NC(=O)[C@@H]1CCCCN1CC(=O)c1ccc2ccccc2c1)C(C)C
